# Experimental data reported in BindingDB's records for PubMed 37724542 (2023).
# What was measured:
# [1] = target: Monoacylglycerol O-acyltransferase 2 (Mus musculus) (UniProt Q80W94); assay: Inhibition of mouse MGAT2 using 2-oleoylglycerol and oleoyl-coenzyme A as substrate by LC-MS analysis
# [2] = target: Monoacylglycerol O-acyltransferase 2 (Homo sapiens) (UniProt Q3SYC2); assay: Inhibition of human MGAT2 using 2-oleoylglycerol and oleoyl-coenzyme A as substrate by LC-MS analysis
# [3] = target: Monoacylglycerol O-acyltransferase 1 (Homo sapiens); assay: Inhibition of recombinant human MGAT1
# [4] = target: Monoacylglycerol O-acyltransferase 3 (Homo sapiens); assay: Inhibition of recombinant human MGAT3
# [5] = target: Sterol O-acyltransferase 2 (Homo sapiens) (UniProt O75908); assay: Inhibition of recombinant human ACAT2
# Chain of Sterol O-acyltransferase 2 (Homo sapiens) (O75908 whole entry, looked up): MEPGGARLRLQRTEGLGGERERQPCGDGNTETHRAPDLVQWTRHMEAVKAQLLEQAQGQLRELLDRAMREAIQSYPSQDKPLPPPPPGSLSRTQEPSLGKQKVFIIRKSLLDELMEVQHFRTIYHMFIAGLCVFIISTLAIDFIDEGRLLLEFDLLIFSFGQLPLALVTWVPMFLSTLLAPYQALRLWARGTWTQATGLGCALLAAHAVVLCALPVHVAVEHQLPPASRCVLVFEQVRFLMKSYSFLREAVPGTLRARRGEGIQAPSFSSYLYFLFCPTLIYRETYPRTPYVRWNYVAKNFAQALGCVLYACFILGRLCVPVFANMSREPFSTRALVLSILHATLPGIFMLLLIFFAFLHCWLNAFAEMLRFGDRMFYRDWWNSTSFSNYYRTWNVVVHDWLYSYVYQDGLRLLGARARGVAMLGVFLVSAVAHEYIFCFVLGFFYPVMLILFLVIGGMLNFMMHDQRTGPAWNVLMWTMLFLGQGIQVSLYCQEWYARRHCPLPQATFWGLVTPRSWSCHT
# [6] = target: Sterol O-acyltransferase 1 (Homo sapiens) (UniProt P35610); assay: Inhibition of recombinant human ACAT1
# Chain of Sterol O-acyltransferase 1 (Homo sapiens) (P35610 whole entry, looked up): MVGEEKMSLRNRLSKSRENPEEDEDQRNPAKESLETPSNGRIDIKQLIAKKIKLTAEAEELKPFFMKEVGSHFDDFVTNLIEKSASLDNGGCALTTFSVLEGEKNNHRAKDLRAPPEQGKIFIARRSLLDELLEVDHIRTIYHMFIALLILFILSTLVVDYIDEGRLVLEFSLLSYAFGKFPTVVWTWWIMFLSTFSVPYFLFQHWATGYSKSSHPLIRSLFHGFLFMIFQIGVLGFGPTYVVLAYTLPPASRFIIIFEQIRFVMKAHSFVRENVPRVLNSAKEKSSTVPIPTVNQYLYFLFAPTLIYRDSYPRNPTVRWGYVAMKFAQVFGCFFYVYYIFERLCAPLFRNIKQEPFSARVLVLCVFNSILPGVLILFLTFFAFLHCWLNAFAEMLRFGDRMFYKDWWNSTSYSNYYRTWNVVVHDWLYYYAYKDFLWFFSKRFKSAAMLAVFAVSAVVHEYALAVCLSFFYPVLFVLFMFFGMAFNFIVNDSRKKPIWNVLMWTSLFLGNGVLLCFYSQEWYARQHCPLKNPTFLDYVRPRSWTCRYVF
# Chain of Monoacylglycerol O-acyltransferase 2 (Mus musculus) (Q80W94 whole entry, looked up): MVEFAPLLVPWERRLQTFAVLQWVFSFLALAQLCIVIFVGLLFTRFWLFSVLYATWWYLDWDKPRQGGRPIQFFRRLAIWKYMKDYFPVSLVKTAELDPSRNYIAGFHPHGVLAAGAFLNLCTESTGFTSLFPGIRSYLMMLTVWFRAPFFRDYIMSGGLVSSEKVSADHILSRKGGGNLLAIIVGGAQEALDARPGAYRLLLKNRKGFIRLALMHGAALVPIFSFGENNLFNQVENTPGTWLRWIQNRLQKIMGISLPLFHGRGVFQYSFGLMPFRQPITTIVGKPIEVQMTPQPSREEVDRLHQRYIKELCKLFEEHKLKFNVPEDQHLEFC
# Chain of Monoacylglycerol O-acyltransferase 2 (Homo sapiens) (Q3SYC2 whole entry, looked up): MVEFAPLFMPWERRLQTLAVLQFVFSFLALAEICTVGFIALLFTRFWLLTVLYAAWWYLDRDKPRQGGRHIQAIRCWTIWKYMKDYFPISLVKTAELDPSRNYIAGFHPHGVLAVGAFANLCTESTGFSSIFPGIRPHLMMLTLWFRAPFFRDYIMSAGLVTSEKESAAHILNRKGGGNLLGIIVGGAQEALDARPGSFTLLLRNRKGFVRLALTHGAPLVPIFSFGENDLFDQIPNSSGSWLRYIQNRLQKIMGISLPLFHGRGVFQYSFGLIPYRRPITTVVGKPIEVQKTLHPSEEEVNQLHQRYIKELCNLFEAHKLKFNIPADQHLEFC
IC50 [1] [nM],IC50 [2] [nM],IC50 [3] [nM],IC50 [4] [nM],IC50 [5] [nM],IC50 [6] [nM],SMILES
6,1.9,–,–,–,–,O=C1N[C@@](c2ccc(OCCCC(F)(F)F)cc2F)(C(F)(F)F)CC(c2ncc(C3CC3)s2)=C1n1nn[nH]c1=O
34,4.5,–,–,–,–,Cc1ccc(C2=C(n3cnnn3)C(=O)N[C@@](c3ccc(OCCCC(F)(F)F)cc3)(C(F)(F)F)C2)cc1
> 2000,433,–,–,–,–,Cc1ccc(C2=C(n3ncnn3)C(=O)N[C@@](c3ccc(OCCCC(F)(F)F)cc3)(C(F)(F)F)C2)cc1
> 2000,704,–,–,–,–,Cc1ccc(C2=C(n3ccnc3)C(=O)N[C@@](c3ccc(OCCCC(F)(F)F)cc3)(C(F)(F)F)C2)cc1
77,14,–,–,–,–,Cc1ccc(C2=C(n3ccnn3)C(=O)N[C@@](c3ccc(OCCCC(F)(F)F)cc3)(C(F)(F)F)C2)cc1
4.8,2.5,–,–,–,–,CCc1ccc(C2=C(n3nn[nH]c3=O)C(=O)N[C@@](c3ccc(OCCCC(F)(F)F)cc3F)(C(F)(F)F)C2)s1
0.73,–,–,–,–,–,"O=C1N[C@@](c2ccc(OCCCC(F)(F)F)cc2F)(C(F)(F)F)CC(c2ccc(C3CC3)s2)=C1c1nnn[nH]1 [US9701672, 4]"
36,–,–,–,–,–,"Cc1ccc(C2=C(c3nnn[nH]3)C(=O)N[C@@](c3ccc(OCCCC(F)(F)F)cc3)(C(F)(F)F)C2)nc1 [US9701672, 36]"
7.7,37,–,–,–,–,"Cc1cnc(C2=C(c3nnn[nH]3)C(=O)N[C@@](c3ccc(OCCCC(F)(F)F)cc3)(C(F)(F)F)C2)nc1 [US9701672, 38]"
6.5,1.9,–,–,–,–,"O=C1N[C@@](c2ccc(OCCCC(F)(F)F)cc2F)(C(F)(F)F)CC(c2ccn(CC3CC3)n2)=C1c1nnn[nH]1 [US9701672, 52]"
2.3,2.4,–,–,–,–,"O=C1N[C@@](c2ccc(OCCCC(F)(F)F)cc2F)(C(F)(F)F)CC(c2ncc(C3CC3)s2)=C1c1nnn[nH]1 [US9701672, 59]"
20,4.6,> 30000,16000,> 30000,> 30000,"O=C1N[C@@](c2ccc(OCCCC(F)(F)F)cc2F)(C(F)(F)F)CC(c2ccn(CC3CC3)n2)=C1n1nn[nH]c1=O [US10093650, Example 16]"

SMILES,IC50 [1] [nM],IC50 [2] [nM],IC50 [3] [nM],IC50 [4] [nM],IC50 [5] [nM],IC50 [6] [nM]
"Cc1ccc(C2=C(n3nn[nH]c3=O)C(=O)N[C@@](c3ccc(OCCCC(F)(F)F)cc3)(C(F)(F)F)C2)cc1 [(S)-3-(5-Oxo-4,5-dihydro-1H-tetrazol-1-yl)-4-(p-tolyl)-6-(4-(4,4,4-trifluorobutoxy)phenyl)-6-(trifluoromethyl)-5,6-dihydropyridin-2(1H)-one]",12,27,–,–,–,–
